One test concerns the target T1, AMPfret 2.1 (UniProt O43741+P80385+Q09137).
T1 construct: decaHis tag with TEV site (N); made in house; host or cells: E. coli BL21 (DE3) Star
As to the kind of experiment: FRET assay with purified AMPfret 2.1 sensor (fluorimeter). As to conditions: 50 μM A-769662 or 500 μM Metformin, compared with 20 μM AMP (FIG. 6). Format: binding, rat α2 and γ1, human β2. The method, then: The FRET ratio was calculated from fluorescence emission spectra excited at 430 nm. Data points correspond to mean±SEM (n>3).
Structure and names of the molecules are given below the bars.
FRET assay: FRET signal variation in presence of different compounds (nucleotides, chemicals, ions) was measured using a fluorimeter (Photon Technology International). AMPfret constructs (20 pmol) were incubated in a quartz cuvette in a final volume of 150 μL (spectro buffer: 50 mM Tris pH8, 200 mM NaCl, 5 mM MgCl2, 2 mM β-mercaptoethanol). Effects of nucleotides and others compounds (previously prepared in the spectro buffer) on the FRET ratio given by AMPfret sensor was determined by comparing FRET ratio (peak value at 527 nm/peak value at 476 nm) in presence or absence of the compounds. Excitation wavelength was set to 430 nm, and emission spectra were recorded from 450 to 600 nm with an integration time of 0.2 s. Mg^2+ effect on FRET was investigated in spectro buffer without Mg^2+.

In test [1] the test system is AMPfret 2.1 in 3T3-L1 or HeLa cells. The settings on record: 1 mM AICAR. How it is done:
HeLa cells transfected with AMPFret 2.1 were exposed for 60 min to 1 mM AICAR. […] (b) Time course of the FRET signal. […] (c) AMPK activation at t=0 min and t=60 min. Phosphorylation of the AMPK substrate ACC as determined by immunoblotting (lower panel) and quantification of the resulting P-ACC/total ACC ratio (upper panel). P-ACC/total ACC ratios at t=0 and t=60 min are respectively represented as a white dotted bar and black dotted bar. Data correspond to mean±SEM (n=3).
For cellular ex vivo experiments, subunits of the optimized construct AMPfret 2.1 were cloned in the vectors (pACEMam2, pMDS and pMDK) of the MultiMam expression system. Created plasmids were fused via their Lox-P site to yield to a single mammalian expression vector coding for the sensor AMPFret 2.1 according to well-known techniques to the skilled man in the art.
3T3-L1 and HeLa cells were cultivated in glucose containing DMEM (4.5 g/L) supplemented with SVF, glutamine, penicillin and streptomycin. Once cells reached around 80% confluence, medium was replaced by OptiMEM (Lifetechnologies) and AMPfret 2.1 coding plasmid was transfected using Lipofectamine2000 (Lifetechnologies). After 5 h, OptiMEM was exchanged by complete DMEM and cells grew for >36 h until their observations under the confocal microscope.
LabTek plates were placed in an incubation chamber in which the temperature and O2 concentration were maintained at 37° C. and 21%, respectively. Without moving the Labtek, 200 μL medium was replaced by the same volume of complete medium containing 2 mM AICAR (1 mM final). Excitation wavelength was set to 458 nm and emission spectra showing FRET signal were monitored through A scans from 463 nm to 600 nm every 15 min. ROI (region of interest) were drawn in order to cover entire cells. FRET ratio variations were calculated from those measured emission spectra.
AMPfret 2.1 was excited using a 458 nm laser and emission spectra showing FRET signal were monitored through A scans from 463 nm to 600 nm every 15 min.

Test [2] is described as follows: FRET signal variation of AMPfret constructs upon AMP/ADP binding. As to conditions: 3 mM ATP vs 20 μM AMP (FIG. 2). The source says: Top: Schema showing structural organization of the sensors. CFP and YFP are respectively represented as hatched- and dotted-circles. (a) Fluorescence emission spectra of AMPfret constructs excited at 430 nm. […] Data correspond to mean±SEM (AMPfret A: n=7; AMPfret C: n=10).
Second generation of AMPfret constructs 1.1 and 2.1. based on constructs AMPfret C and A, respectively. Top: Schema showing structural organization of the sensors. Both optimized constructs contain mseCFPΔ11/cpVenus as GFP-derived fluorescent couple instead of CFP/YFP. mseCFPΔ11 and cpVenus are respectively represented as hatched- and checkered circles. […] (a) Fluorescence emission spectra of AMPfret constructs excited at 430 nm. […] Data correspond to mean±SEM (AMPfret 1.0: n=10; AMPfret 1.1: n=7); *=p<0.001 (significance assessed by a Student-Newman-Keuls test).
FRET assay: FRET signal variation in presence of different compounds (nucleotides, chemicals, ions) was measured using a fluorimeter (Photon Technology International). […] Effects of nucleotides and others compounds (previously prepared in the spectro buffer) on the FRET ratio given by AMPfret sensor was determined by comparing FRET ratio (peak value at 527 nm/peak value at 476 nm) in presence or absence of the compounds. Excitation wavelength was set to 430 nm, and emission spectra were recorded from 450 to 600 nm with an integration time of 0.2 s. […]

These results are taken from patent publication US10935546B2, “Fluorescent AMP-kinase biosensors” (Universite Grenoble Alpes, priority 2015, dated 2021).

T1 sequence (Q09137 1-550): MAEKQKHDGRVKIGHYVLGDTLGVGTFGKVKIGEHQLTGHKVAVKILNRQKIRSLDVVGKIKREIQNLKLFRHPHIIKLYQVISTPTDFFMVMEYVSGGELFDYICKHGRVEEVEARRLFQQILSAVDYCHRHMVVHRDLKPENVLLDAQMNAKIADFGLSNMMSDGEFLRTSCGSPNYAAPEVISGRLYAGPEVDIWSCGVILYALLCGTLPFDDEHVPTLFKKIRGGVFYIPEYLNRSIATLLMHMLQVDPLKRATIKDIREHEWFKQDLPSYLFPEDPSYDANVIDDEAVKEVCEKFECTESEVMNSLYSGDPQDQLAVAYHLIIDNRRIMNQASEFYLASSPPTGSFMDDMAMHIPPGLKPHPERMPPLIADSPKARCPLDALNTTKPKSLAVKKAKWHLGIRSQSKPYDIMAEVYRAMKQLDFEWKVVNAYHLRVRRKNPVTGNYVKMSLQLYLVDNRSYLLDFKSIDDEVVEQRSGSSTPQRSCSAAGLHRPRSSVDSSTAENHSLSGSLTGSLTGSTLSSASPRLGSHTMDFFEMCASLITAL
T1 sequence (O43741 1-269): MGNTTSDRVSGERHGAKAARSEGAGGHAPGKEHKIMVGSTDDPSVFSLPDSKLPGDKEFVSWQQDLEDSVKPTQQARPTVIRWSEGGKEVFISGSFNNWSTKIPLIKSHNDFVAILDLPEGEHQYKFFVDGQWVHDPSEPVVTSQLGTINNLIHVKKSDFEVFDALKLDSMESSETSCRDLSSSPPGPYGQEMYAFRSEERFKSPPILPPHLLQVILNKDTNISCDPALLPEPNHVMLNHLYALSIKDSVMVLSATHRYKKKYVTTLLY
T1 sequence (P80385 whole entry): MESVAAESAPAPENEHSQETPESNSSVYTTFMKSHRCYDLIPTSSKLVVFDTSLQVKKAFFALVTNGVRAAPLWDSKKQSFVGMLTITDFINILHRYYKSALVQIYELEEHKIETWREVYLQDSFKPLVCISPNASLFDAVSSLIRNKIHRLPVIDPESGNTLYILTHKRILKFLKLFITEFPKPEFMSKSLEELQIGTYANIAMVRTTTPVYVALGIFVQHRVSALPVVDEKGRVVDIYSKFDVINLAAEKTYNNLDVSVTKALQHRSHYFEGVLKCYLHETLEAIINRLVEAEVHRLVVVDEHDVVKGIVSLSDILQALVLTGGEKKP

In the case of `N#Cc1c(O)c2c(-c3ccc(-c4ccccc4O)cc3)csc2[nH]c1=O` [A-769662], on AMPfret 2.1, the “FRET signal induced in AMPfret in vitro” value is “induces a FRET signal comparable to AMP”.

Regarding `NC(=O)c1ncn([C@@H]2O[C@H](CO)[C@@H](O)[C@H]2O)c1N` [AICAR, 5′-Aminoimidazole-4-carboxamide ribonucleoside], in test [1], the “time to maximal effect on FRET signal” value is listed as “about 30 minutes”. The “AMPfret 2.1 FRET signal upon AICAR addition” value in test [1] (60 min, read every 15 min, HeLa and 3T3-L1 cells) is “increased with time”. The “FRET response after 15 min of treatment” value in test [1] (15 min) is recorded as “More than half-maximal response”. Moreover, the “cpVenus peak (527 nm) in fluorescence emission spectra over time” value in test [1] (HeLa cells transfected with AMPFret 2.1, 0, 15, 30 min) was “increase of cpVenus peak”. Consider `CN(C)C(=N)N=C(N)N` [Metformin], for which, on AMPfret 2.1, the “FRET signal induced in AMPfret in vitro” value is given as “did not induce any FRET variation”. As for “AMPfret A: AMPK heterotrimer: rat alpha2-CFP (SEQ ID NO:5), human beta2-YFP (SEQ ID NO:11), rat gamma1 (SEQ ID NO:15)”, the “difference in FRET signal depending on the presence of AMP or ADP” value in test [2] was approximately 10%. Regarding “AMPfret C: AMPK heterotrimer: rat alpha2-CFP (SEQ ID NO:5), human beta2 (SEQ ID NO:9), rat gamma1-YFP (SEQ ID NO:21)”, in test [2], the “difference in FRET signal depending on the presence of AMP or ADP” value is on record as approximately 10%.
